Experimental data reported in publication PMC6634314 (Cell chemical biology, 2019).

Key:
MAP3K11 = assay: MIB washout assay; assay type: binding, Human; details: H23 cells, 1 μM 4h, MIB pulldown ratio SM1-71/SM1-71-R
DDR1 = assay: MIB washout assay; assay type: binding, Human; details: H23 cells, 1 μM 4h, MIB pulldown ratio SM1-71/SM1-71-R
CSNK1A1 = assay: MIB washout assay; assay type: binding, Human; details: H23 cells, 1 μM 4h, MIB pulldown ratio SM1-71/SM1-71-R
YES1 = YES1 (Homo sapiens, UniProt P07947); assay: MIB washout assay; assay type: binding; details: H23 cells, 1 μM 4h, MIB pulldown ratio SM1-71/SM1-71-R
YES1, sequence (P07947 whole entry): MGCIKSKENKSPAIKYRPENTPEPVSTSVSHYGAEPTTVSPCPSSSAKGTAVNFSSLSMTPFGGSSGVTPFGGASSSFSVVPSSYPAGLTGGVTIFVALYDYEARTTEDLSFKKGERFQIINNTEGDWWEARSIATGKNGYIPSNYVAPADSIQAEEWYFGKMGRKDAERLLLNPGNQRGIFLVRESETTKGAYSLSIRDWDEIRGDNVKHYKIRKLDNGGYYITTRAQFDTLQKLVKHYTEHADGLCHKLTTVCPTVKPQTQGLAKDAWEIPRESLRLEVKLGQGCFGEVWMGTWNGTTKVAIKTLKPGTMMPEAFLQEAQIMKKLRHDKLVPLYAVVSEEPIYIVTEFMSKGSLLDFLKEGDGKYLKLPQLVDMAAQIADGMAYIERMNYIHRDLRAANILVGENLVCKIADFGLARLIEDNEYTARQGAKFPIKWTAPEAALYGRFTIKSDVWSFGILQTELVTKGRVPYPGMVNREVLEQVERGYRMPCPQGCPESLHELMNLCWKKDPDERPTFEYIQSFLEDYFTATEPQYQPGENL

SRC = SRC (Homo sapiens, UniProt P12931); assay: MIB washout assay; assay type: binding; details: H23 cells, 1 μM 4h, MIB pulldown ratio SM1-71/SM1-71-R
SRC, sequence (P12931 whole entry): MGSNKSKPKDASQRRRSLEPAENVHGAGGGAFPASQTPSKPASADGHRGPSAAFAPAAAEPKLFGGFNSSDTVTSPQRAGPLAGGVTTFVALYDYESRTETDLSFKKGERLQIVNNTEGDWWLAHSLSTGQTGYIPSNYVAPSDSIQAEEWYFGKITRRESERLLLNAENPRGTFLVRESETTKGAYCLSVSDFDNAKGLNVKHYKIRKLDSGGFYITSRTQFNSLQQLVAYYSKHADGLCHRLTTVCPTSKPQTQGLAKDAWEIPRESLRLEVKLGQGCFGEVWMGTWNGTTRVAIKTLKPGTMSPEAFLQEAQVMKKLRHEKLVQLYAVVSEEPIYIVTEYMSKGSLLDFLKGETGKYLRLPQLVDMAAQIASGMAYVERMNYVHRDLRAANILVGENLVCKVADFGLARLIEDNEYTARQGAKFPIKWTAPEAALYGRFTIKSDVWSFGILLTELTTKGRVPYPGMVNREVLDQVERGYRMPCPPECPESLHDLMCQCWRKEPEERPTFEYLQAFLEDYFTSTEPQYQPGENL

FGFR1 = assay: MIB washout assay; assay type: binding, Human; details: H23 cells, 1 μM 4h, MIB pulldown ratio SM1-71/SM1-71-R
WEE1 = assay: MIB washout assay; assay type: binding, Human; details: H23 cells, 1 μM 4h, MIB pulldown ratio SM1-71/SM1-71-R
TEC = assay: MIB washout assay; assay type: binding, Human
CSNK1G1 = assay: MIB washout assay; assay type: binding, Human; details: H23 cells, 1 μM 4h, MIB pulldown ratio SM1-71/SM1-71-R
PAK4 = assay: MIB washout assay; assay type: binding, Human; details: H23 cells, 1 μM 4h, MIB pulldown ratio SM1-71/SM1-71-R
STK16 = assay: MIB washout assay; assay type: binding, Human; details: H23 cells, 1 μM 4h, MIB pulldown ratio SM1-71/SM1-71-R
PIK3C3 = assay: MIB washout assay; assay type: binding, Human; details: H23 cells, 1 μM 4h, MIB pulldown ratio SM1-71/SM1-71-R
MET = assay: MIB washout assay; assay type: binding, Human; details: H23 cells, 1 μM 4h, MIB pulldown ratio SM1-71/SM1-71-R
GAK = target: T1, GAK (Homo sapiens, UniProt O14976); assay: MIB washout assay; assay type: binding; details: H23 cells, 1 μM 4h, MIB pulldown ratio SM1-71/SM1-71-R
T1 sequence (O14976 1-1311): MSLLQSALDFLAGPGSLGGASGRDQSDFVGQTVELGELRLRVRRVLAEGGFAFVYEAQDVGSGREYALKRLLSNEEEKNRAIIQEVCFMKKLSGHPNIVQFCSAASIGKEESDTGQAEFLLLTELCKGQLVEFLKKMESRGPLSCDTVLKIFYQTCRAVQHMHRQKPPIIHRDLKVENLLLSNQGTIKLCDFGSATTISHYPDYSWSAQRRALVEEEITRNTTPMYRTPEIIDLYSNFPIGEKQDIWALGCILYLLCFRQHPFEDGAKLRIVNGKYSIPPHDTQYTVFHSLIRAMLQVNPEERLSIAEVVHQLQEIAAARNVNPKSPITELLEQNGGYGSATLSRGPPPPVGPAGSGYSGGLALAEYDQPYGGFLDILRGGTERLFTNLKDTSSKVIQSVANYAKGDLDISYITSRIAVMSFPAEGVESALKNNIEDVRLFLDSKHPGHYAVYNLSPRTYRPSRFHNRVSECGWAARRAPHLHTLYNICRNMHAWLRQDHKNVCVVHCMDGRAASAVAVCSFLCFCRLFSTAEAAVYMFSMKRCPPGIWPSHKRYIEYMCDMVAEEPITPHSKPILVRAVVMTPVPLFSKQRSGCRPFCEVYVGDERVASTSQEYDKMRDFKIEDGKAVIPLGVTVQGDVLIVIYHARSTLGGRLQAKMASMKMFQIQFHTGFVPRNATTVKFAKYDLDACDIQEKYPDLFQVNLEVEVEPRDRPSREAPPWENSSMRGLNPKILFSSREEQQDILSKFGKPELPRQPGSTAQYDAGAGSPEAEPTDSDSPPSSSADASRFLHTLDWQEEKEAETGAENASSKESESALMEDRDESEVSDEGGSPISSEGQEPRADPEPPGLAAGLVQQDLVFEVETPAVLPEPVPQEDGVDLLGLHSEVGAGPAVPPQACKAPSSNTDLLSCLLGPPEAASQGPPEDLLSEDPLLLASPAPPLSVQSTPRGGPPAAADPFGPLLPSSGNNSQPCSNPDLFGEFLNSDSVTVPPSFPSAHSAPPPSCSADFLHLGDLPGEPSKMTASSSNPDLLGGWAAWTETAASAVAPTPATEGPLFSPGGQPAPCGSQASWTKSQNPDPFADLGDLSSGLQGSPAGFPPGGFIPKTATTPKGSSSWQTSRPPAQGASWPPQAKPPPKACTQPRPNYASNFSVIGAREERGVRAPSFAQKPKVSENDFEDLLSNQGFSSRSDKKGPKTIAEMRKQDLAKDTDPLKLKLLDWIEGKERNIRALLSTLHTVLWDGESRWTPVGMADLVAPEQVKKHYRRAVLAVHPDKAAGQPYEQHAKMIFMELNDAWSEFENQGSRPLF

MAP2K1/2 = assay: MIB dose-dependent kinase inhibition assay; assay type: binding, Human; details: read-out: IC50 in the MIB assay, H23 cell lysate, overnight 4°C
PIP4K2C = assay: MIB washout assay; assay type: binding, Human; details: H23 cells, 1 μM 4h, MIB pulldown ratio SM1-71/SM1-71-R
PRKD3 = assay: MIB washout assay; assay type: binding, Human; details: H23 cells, 1 μM 4h, MIB pulldown ratio SM1-71/SM1-71-R

`C=CC(=O)Nc1ccccc1Nc1nc(Nc2ccc(N3CCN(C)CC3)cc2)ncc1Cl` [SM1-71] showed a BI-0h (MAP3K11; 0h post-washout) of 0.6, a BI-6h (MAP3K11; 6h post-washout) of 0.76 and a BI-0h (DDR1; 0h post-washout) of 0.68. The BI-6h (DDR1; 6h post-washout) was 0.59, the BI-0h (CSNK1A1; 0h post-washout) was 0.91 and the BI-6h (CSNK1A1; 6h post-washout) was 0.74. It also gave a BI-0h (YES1; 0h post-washout) of 0.21, a BI-6h (YES1; 6h post-washout) of 0.1 and a BI-0h (SRC; 0h post-washout) of 0.19. It also gave a BI-6h (SRC; 6h post-washout) of 0.13, a BI-0h (FGFR1; 0h post-washout) of 0.45 and a BI-6h (FGFR1; 6h post-washout) of 0.42. It also gave a BI-0h (WEE1; 0h post-washout) of 0.98, a BI-6h (WEE1; 6h post-washout) of 0.63 and a BI-0h (TEC; H23 cells, 1 μM 4h, 0h post-washout, MIB pulldown ratio SM1-71/SM1-71-R) of 1.02. The BI-6h (TEC; H23 cells, 1 μM 4h, 6h post-washout, MIB pulldown ratio SM1-71/SM1-71-R) was 1.43, the Binding (TEC; class from BI 0h and 6h) was “Strongly Reversible (BI0h,6h greater than 1 suggesting a strong preference for reversible mode of inhibition)” and the BI-0h (CSNK1G1; 0h post-washout) was 0.55. It also gave a BI-6h (CSNK1G1; 6h post-washout) of 0.81, a BI-0h (PAK4; 0h post-washout) of 0.93 and a BI-6h (PAK4; 6h post-washout) of 0.9. It also gave a BI-0h (STK16; 0h post-washout) of 0.51, a BI-6h (STK16; 6h post-washout) of 0.76 and a BI-0h (PIK3C3; 0h post-washout) of 0.28. The BI-6h (PIK3C3; 6h post-washout) was 0.44, the BI-0h (MET; 0h post-washout) was 0.75 and the BI-6h (MET; 6h post-washout) was 0.53. The BI-0h (GAK; 0h post-washout) was 0.07, the BI-6h (GAK; 6h post-washout) was 0.04 and the IC50 (MAP2K1/2) was under 10 nM. The BI-0h (PIP4K2C; 0h post-washout) was 0.8, the BI-6h (PIP4K2C; 6h post-washout) was 0.6 and the BI-0h (PRKD3; 0h post-washout) was 0.59. The BI-6h (PRKD3; 6h post-washout) was 0.72.
